The values below come from US8840934B2 (Rainbow Pharmaceutical SA, priority 2009, dated 2014).

The subject of experiment [1] is IL-6. The experiment in a line: Serum IL-6 (ELISA) in TAA-treated Quinster rats given ammonium chloride per os. The note with it: 12 hours post the third TAA injection, mean ± SD. Format: in vivo. As to the method:
(§1) Thioacetamid (TAA) was given to adult male Quinster rats with a course of 400 mg TAA/kg B.W. every 24 hours and for 3 consecutive days. […] The animals were sacrificed in 6 and 12 hours after the 3rd treatment with TTA. TNF-α and IL-6 levels were measured in serum (ELISA test) after 12 hours post the third TAA injection and the results are reported in the following table.
(ELISA stands for enzyme-linked immunosorbent assay.)

For experiment [2], the system named is TNF-α. The experiment in a line: Serum TNF-α (ELISA) in TAA-treated Quinster rats given ammonium chloride per os. Format: in vivo. The settings on record: 12 hours post the third TAA injection, mean ± SD. The protocol: as §1
Experiment [3] deals with hyaluronic acid. The experiment can be described thus: Hyaluronic acid levels in treated Quinster rats. Format: in vivo. The source says: The levels of hyaluronic acid in patients with high-grade hepatic damage are usually high, but they appeared decreased in the treated Quinster rats. Furthermore, additional biochemical factors appeared improved.
In experiment [4] the test system is chronic hepatitis B. The experiment in a line: Clinical treatment of a patient with chronic hepatitis B, viral charge. Type of experiment: in vivo, human. The settings on record: 3 gr/day by the protocol, before treatment 1.65 × 10^6 IU/ml. The protocol:
(§2) The above protocol of administration can be repeated several times until the completion of the treatment as judged by the clinician. For example, 21 cycles of treatment are performed, which complies with the natural time of regeneration of liver after a partial hepatectomy in patients. Therefore, the duration of the treatment can be from 1 to 6 months or from 3 to 4 months for patients with partial necrosis.
(§3) Patients were treated according to the above described protocol, using a dose of 3 gr/day.

Experiment [5] concerns hepatitis C. The experiment in a line: Clinical treatment of a patient with hepatitis C, viral charge. Type of experiment: in vivo, human. The settings on record: Patient B, 3 gr/day by the protocol, before treatment 1.65 × 10^8 IU/ml. The protocol:
as §2, §3

In experiment [6] the test system is Hepatitis Virus. The experiment can be described thus: Use of NH4Cl in treating hepatitis virus, reduction of viral charge across patients. Format: in vivo. The settings on record: in humans; Patients A and B, 3 months of treatment, 3 gr/day. The protocol:
as §3

Consider `Cl.N` [NH4Cl, ammonium chloride], for which the IL-6 in experiment [1] (Group II, at least 8 animals per group, Control 11 ± 5, Group I 58 ± 9) was 69 ± 12 pg/dL; in experiment [1] (Group III) it was 92 ± 8 pg/dL; in experiment [1] (Group IV), 73 ± 12 pg/dL. Besides, the TNF-α in experiment [2] (Group II, Control 21 ± 4, Group I 65 ± 15) turned out to be 52 ± 17 pg/dL; in experiment [2] (Group III), 32 ± 6 pg/dL; in experiment [2] (Group IV), 45 ± 9 pg/dL. In addition, the “levels of hyaluronic acid” value in experiment [3] is recorded as “decreased”. The “Viral charge after 3 months of treatment” value in experiment [4] is 1.65 × 10^3 IU/ml; in experiment [5], 1.65 × 10^6 IU/ml. For the same compound, the “factor of reduction of the viral charge” value in experiment [6] is given as “at least 10^2”.
